Test results as given in patent publication US20220281918A1, “PBP BINDING BICYCLIC PEPTIDE LIGANDS” (BicycleTx Limited, priority 2019, published 2022).
≈ marks a conversion by molar mass, not a printed value. Numbered stars: 1 amine (or outer) side, 2 acyl side, 3 side chain; on linkers, the order of the positions; unused ones are H or OH. Bridge positions count the residues as written; N and C are the ends. Square brackets hold non-standard residues; d marks the D form. Ends that are not written are not given here. TATA = O=C(CC[*:1])N1CN(C(=O)CC[*:2])CN(C(=O)CC[*:3])C1; fluorescein = label appended via Sar6-Lys linker; Sar = CNCC(=O)O

Columns and labels:
[1] = system: E. Coli GKCW101 (WT); assay: MIC assay, E. coli GKCW101; format: cell-based; details: Escherichia coli
Method: (§1) Minimum inhibitory concentration (MIC) assays were carried out using E. coli strains from the Zgurskaya lab engineered to harbour an inducible pore to make the outer membrane permeable (Krishnamoorthy et al. (2016) doi: https://doi.org/10.1128/AAC.01882-16). Strains used: GKCW101; GKCW102; GKCW103; and GKCW104.
(§2) Overnight cultures of bacteria were first prepared by transferring a single bacterial colony into 5 mL cation-adjusted Mueller-Hinton broth (CA-MHB) supplemented with kanamycin at 50 μg/mL. The following day, overnight cultures were diluted 1/100 in 25 mL CA-MHB with 50 μg/mL kanamycin and cultured until the optical density reached 0.3 as measured on a spectrometer at 600 nm.
(§3) Filter-sterilised arabinose was then added to a concentration of 0.1% w/v and subsequently cultured until the optical density at 600 nm equalled to 1.
(§4) The cultured medium was then diluted to 1×10^6 CFU mL^−1 in CA-MHB supplemented with 0.1% w/v arabinose and 50 μg/mL kanamycin. […]
(§5) A maximum 8 μl of peptide ligand was then added into the wells of column 1 and diluted two-fold across the plate. […] The optical density at 600 nm was then measured for each of the wells using a PheraStar FSx plate reader. MIC values were determined as the cutoff concentration between visible growth and no growth of the bacteria.

[2] = target: T1, PBP3 of E. coli (Escherichia coli, UniProt P0AD68); assay: Fluorescence polarisation competition binding assay Method 1 (BODIPY labelled penicillin tracer); details: competition with Bocillin (BODIPY-penicillin)
T1 sequence (P0AD68 1-577): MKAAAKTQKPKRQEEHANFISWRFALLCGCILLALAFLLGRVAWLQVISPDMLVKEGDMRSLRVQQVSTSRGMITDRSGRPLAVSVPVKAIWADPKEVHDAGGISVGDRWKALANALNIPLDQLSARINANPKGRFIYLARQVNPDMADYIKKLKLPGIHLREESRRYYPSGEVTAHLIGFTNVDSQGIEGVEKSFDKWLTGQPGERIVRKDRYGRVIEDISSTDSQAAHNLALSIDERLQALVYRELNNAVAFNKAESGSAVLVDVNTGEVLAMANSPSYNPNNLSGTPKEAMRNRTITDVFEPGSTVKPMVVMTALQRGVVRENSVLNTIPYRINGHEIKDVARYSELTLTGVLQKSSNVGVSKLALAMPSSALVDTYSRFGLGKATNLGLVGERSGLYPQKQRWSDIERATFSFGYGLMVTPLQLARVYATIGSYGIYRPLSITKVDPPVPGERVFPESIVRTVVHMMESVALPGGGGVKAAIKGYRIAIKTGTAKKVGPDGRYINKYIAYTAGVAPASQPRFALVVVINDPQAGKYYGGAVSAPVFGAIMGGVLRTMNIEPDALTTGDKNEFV
Method: Fluorescence polarisation competition was carried out using a BODIPY labelled Penicillin tracer and unlabelled peptides, for competition to an unmodified PBP protein. Polarisation was measured using a PHERAstar FS by BMG Labtech fitted with a FP 485 520 520 optic module.
Fluorescent BODIPY labelled penicillin at 5 mM in DMSO were diluted to 6.25 nM in binding buffer (10 mM HEPES, pH8, 300 mM NaCl, 2% glycerol). Unmodified PBP were diluted to 2 μM in binding buffer. A two-fold dilution series of unmodified peptide was prepared across 12 wells in binding buffer, with the highest final well concentration being 60 μM, and the lowest concentration being 50 nM. 5 μl of the unmodified peptide dilution series or Carbenicillin were added to 12 wells of a 384-Well NBS™ Low Volume Microplate (Fisher Scientific). 10 μl diluted fluorescent BODIPY labelled penicillin (6.25 nM) were then added to the 12 wells containing the unmodified peptide dilutions. […]
Fluorescence polarisation was measured every 5 minutes for a period of one hour at room temperature. […]
Data were analysed in GraphPad software to derive values for the inhibition constant. […]

[3] = system: S. typhimurium (ATCC 19585); assay: MIC assay (10 μl), S. typhimurium; format: cell-based; details: Salmonella enterica
Method: (§6) Test compounds were dissolved at high concentration in the required solvent. Where DMSO was used to dissolve test compounds, a DMSO control with equivalent concentrations of DMSO was included for each test organism. For each test organism, a control antibiotic (for which susceptibility of the test organism was known) was tested in parallel. This allowed comparison of results between runs and validated the testing procedure and organism.
(§7) Using aseptic technique, serial 2-fold dilutions (across a 10 point range) of the test compounds were made in 5 μl of cation-adjusted Muller Hinton broth (CA-MHB), on the inverted lid of a 96-well plate. Inoculum for each test organism was made in phosphate-buffered saline (PBS) to match the turbidity of a 0.5 McFarland standard, and then diluted 100-fold. Each well (except negative control well) was inoculated with 5 μl of inoculum. For each test antibiotic, a negative control (no bacteria) was included, consisting of CA-MHB only; along with a positive control (no antibiotic) with CA-MHB and bacteria only. The base of the 96 well plate was used as a lid, and the plate was incubated inside a humidor to reduce evaporation. […] MIC was evaluated based on turbidity, using white light shone through the base of the plate to illuminate droplets.

[4] = system: E. cloacae (NCTC 13405); assay: MIC assay (10 μl), E. cloacae; format: cell-based; details: Enterobacter cloacae, NCTC13405
Method: as §6, §7

[5] = system: E. coli (ATCC 25922); assay: MIC assay (10 μl), E. coli ATCC 25922; format: cell-based; details: Escherichia coli, ATCC25922
Method: as §6, §7

[6] = system: E. Coli GKCW102 (WT-pore); assay: MIC assay, E. coli GKCW102; format: cell-based; details: Escherichia coli
Method: as §1, §2, §3, §4, §5

[7] = system: E. Coli GKCW103 (ΔToIC); assay: MIC assay, E. coli GKCW103; format: cell-based; details: Escherichia coli
Method: as §1, §2, §3, §4, §5

[8] = target: T1, PBP3 of E. coli; assay: Fluorescence polarisation direct binding assay, PBP 3; details: PBP Tested 3 (E. coli); fluorescent ligand
Method: Fluorescence polarisation was carried out using fluorescein-labelled peptides with unmodified PBP protein and measured using a PHERAstar FS by BMG Labtech fitted with a FP 485 520 520 optic module.
Fluorescent peptides at 10 mM in DMSO were diluted to 2.5 nM in binding buffer (10 mM HEPES, pH8, 300 mM NaCl, 2% glycerol). A two-fold dilution series of PBP protein was then prepared across 12 wells in binding buffer, with the highest concentration being 21 μM, and the lowest concentration being 17 nM.
10 μl diluted fluorescent peptide (2.5 nM) was added into 12 wells of a 384-Well NBS™ Low Volume Microplate (Fisher Scientific). 10 μl PBP dilution series was then added to the wells containing the fluorescent peptide, and 5 μl binding buffer was added to bring the total volume to 25 μl and the final concentration of peptide tracer to 1 nM. A control well lacking PBP protein was prepared with a final peptide concentration of 1 nM to a final volume of 25 μl in binding buffer. Fluorescence polarisation was measured every 5 minutes for a period of one hour at room temperature. The gain and focal height were optimised using the control well lacking protein. […]
Data were analysed in GraphPad software to derive values for the dissociation constant. […]
Of note, the direct binding values presented herein utilise a peptide ligand bound to a fluorescence tracer molecule.

[9] = target: T2, S. pneumoniae PBP1a (S. pneumoniae, UniProt Q04707 37-719, limits assumed); assay: fluorescence polarisation direct binding; fluorescein-labelled peptide, PBP titrated
T2 sequence (looked up): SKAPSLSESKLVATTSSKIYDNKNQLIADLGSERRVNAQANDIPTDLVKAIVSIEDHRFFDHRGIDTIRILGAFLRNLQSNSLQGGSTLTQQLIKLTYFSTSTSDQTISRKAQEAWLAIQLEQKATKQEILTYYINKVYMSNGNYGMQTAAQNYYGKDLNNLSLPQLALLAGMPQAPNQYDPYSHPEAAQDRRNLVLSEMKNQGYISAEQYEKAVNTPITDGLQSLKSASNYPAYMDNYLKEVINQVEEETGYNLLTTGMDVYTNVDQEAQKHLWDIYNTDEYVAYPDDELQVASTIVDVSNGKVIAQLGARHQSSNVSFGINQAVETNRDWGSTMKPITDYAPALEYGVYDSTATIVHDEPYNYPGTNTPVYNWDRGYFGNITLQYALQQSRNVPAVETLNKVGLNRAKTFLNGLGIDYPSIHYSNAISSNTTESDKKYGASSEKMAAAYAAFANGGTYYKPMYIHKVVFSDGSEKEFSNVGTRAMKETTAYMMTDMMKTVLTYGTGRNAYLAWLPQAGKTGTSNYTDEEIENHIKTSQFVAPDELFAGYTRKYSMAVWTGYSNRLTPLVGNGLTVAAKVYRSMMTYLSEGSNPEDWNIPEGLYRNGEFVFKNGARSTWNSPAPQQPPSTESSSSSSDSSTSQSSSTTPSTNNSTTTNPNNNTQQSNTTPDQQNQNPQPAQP

[10] = target: T3, PBP3 of P. aeruginosa (P. aeruginosa, UniProt G3XD46 50-579, limits assumed); assay: as above
T3 construct: also called P. aeruginosa PBP3
T3 sequence (G3XD46 50-579 limits assumed): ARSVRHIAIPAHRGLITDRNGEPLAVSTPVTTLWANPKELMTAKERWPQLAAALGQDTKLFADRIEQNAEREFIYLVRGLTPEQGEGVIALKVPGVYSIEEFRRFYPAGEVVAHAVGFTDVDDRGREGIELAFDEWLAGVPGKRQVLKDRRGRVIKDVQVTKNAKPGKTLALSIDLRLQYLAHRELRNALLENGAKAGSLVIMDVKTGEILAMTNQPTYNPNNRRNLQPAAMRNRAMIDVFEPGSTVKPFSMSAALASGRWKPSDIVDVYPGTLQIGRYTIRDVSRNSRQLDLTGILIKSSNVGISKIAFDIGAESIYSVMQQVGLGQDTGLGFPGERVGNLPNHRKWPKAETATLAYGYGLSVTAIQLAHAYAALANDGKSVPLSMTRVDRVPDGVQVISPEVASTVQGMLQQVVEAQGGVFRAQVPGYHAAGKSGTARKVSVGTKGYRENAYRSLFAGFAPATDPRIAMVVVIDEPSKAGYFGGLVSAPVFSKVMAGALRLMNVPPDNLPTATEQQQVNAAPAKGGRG

[11] = target: T4, PBP3 of E. coli (E. coli, UniProt P0AD68 57-577, limits assumed); assay: as above
T4 construct: also called E. coli PBP3; FtsI
T4 sequence (looked up): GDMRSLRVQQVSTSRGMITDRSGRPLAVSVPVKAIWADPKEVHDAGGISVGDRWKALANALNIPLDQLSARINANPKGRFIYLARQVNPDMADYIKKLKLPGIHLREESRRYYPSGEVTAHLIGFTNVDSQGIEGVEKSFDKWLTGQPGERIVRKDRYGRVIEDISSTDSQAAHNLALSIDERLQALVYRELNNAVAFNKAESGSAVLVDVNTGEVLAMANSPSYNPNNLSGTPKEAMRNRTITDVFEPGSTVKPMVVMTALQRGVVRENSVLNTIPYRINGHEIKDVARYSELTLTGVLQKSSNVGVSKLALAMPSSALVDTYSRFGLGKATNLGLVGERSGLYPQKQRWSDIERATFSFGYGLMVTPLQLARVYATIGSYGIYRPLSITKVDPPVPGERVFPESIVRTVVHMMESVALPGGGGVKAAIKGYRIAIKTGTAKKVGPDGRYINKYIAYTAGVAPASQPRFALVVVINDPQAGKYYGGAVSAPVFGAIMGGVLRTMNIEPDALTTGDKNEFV

Molecule CC1(C)S[C@@H]2[C@H](NC(=O)C(C(=O)O)c3ccccc3)C(=O)N2[C@H]1C(=O)O (stereo partly drawn) [Carbenicillin, reference compound] has an MIC [1] of 14 µg/mL (≈ 37 µM), a Ki [2] of 520 nM and an MIC [3] of 16 µg/mL (≈ 42.3 µM). The MIC [4] was 256 µg/mL (≈ 677 µM), the MIC [5] was 16 µg/mL (≈ 42.3 µM) and the MIC [6] was 0.8 µg/mL (≈ 2.11 µM). It also gave an MIC [7] of 2.3 µg/mL (≈ 6.08 µM).

Cc1cc(C)n2c1C=C1C=CC(CCC(=O)Nc3ccc(OCC(=O)N[C@@H]4C(=O)N5[C@@H]4SC(C)(C)[C@@H]5C(=O)O)cc3)=[N+]1[B-]2(F)F [Bocillin] showed a Kd [8] of 440 nM.

ACPYTSCPPHTMCA[Sar][Sar][Sar][Sar][Sar][Sar]K-fluorescein (linker 2-7-13 via TATA, Bicyclic peptide) [BCY9378 with fluorescein appended to the C-terminus with a Sar6-Lysine linker] gave a Kd [9] of 80 nM.

B1: BCY12130 with fluorescein appended to the C-terminus with a Sar6-Lysine linker (peptide)
peptide: ACSFPKCPWVEGCA
modifications: Ci, Cii and Ciii cyclised with TATA scaffold; fluorescein appended to the C-terminus with a Sar6-Lysine linker
notes: Bicyclic peptide
B1 was tested, and the binding result [10] was “no binding” and the Kd [11] was 2000 nM.

In the case of ACHDWDYRHLCYWRCA[Sar][Sar][Sar][Sar][Sar][Sar]K-fluorescein (linker 2-11-15 via TATA, Bicyclic peptide) [BCY9383 with fluorescein appended to the C-terminus with a Sar6-Lysine linker], the Kd [9] is reported as 400 nM.
